Data from patent US6623730B1, “Therapeutic uses of polymers and oligomers comprising gamma-hydroxybutyrate” (Tepha, Inc., priority 1999, dated 2003).

Key:
[1] = Digestibility of GHB oligomers in normal rats: serum GHB after gavage (GC-MS); settings: for time for serum GHB to decrease to baseline values / be absorbed and cleared from the circulation: after gavage with GHB monomer
[2] = cited from earlier work
sleep = settings: rat, large dose; cited from earlier work
[3] = male, Sprague-Dawley, rat, serum, oral, 50 mg/kg

SMILES | concentration at 0.5 h [1, 3] | concentration at 1 h [1, 3] | concentration at 2 h [1, 3] | concentration at 4 h [1, 3] | GHB Monomer [GHB] concentration of GHB in serum ([1]; rat serum, 0.5 hr after gavage with 50 mg/kg sodium GHB monomer in TWEEN, 50 mg/kg) | time for serum GHB to decrease to baseline values / be absorbed and cleared from the circulation ([1]; rat, listed as GHB monomer) | time for serum GHB to decrease to baseline values / be absorbed and cleared from the circulation ([1]; rat, listed as monomer) | time of peak plasma concentration ([2]; after oral administration) | half-life of GHB ([2]; in vivo) | sleep duration (sleep)
O=C(O)CCCO [GHB Monomer, Gamma-hydroxybutyrate] | 182 ± 158 µM | 23.2 ± 2.05 µM | 12.8 ± 2.62 µM | 14.9 ± 3.31 µM | 182 ± 158 µM | ≤ 2 h | 1 to 2 h | 20 to 60 min | 35 min | –
CCOC(=O)CCCOC(C)=O [ethyl 4-acetoxybutanoate] | – | – | – | – | – | – | – | – | – | four
